In article PMC8876135, “The Catestatin-Derived Peptides Are New Actors to Fight the Development of Oral Candidosis” (International Journal of Molecular Sciences, 2022):
≈ marks a conversion by molar mass, not a printed value. Non-standard residues stand in square brackets, D forms with d. Residues, ends and D or L forms follow the SMILES beside them. *: point of attachment. Palmitoyl = CCCCCCCCCCCCCCCC(=O)*

Tests used:
[1] = tested on: Candida albicans “S” (ATCC 10231); format: cell-based; conditions: ATCC 10231, 24 h, pH 5.6
Experimental: (§1) Strains of Candida albicans, Candida tropicalis and Candida glabrata, frequently found in cases of oral candidosis, were tested for L-bCtl and D-bCtl antimicrobial activity. The sensitive strain of C. albicans (ATCC 10231^TM) was provided by ATCC (Manassas, VA, USA). The resistant strain of C. albicans, the sensitive and resistant strains of C. tropicalis as well as the sensitive and resistant strains of C. glabrata were kindly provided by Dr Valérie Letscher-Bru (Laboratory of Parasitolology and Medical Mycology, Strasbourg, France).
(§2) Each Candida strain was first plated on agar plates and cultured for 24 h at 37 °C. After incubation, one colony per isolate was transferred into 5 mL of Sabouraud medium pH 5.6 (Sigma-Aldrich, Le Pont-de-Claix, France) supplemented with tetracycline (10 μg/mL) and cefotaxime (10 μg/mL) and incubated aerobically under agitation at 37 °C for 24 h. The resulting cultures were resuspended at an absorbance of 0.001 (OD600nm = 0.001) in Sabouraud medium. The OD600nm was evaluated with a spectrophotometer (BIO-RAD Smatspec^TM plus, Schiltigheim, France). In preliminary experiments, we tested RPMI-1640 culture and Sabouraud media. Similar data were obtained but the experiments were more reproducible with Sabouraud than with RPMI1640. Therefore, Sabouraud medium was used in the present study.
(§3) The yeasts (OD600nm = 0.001) were then plated on 96-well microplates and treated with different concentrations of the peptides of interest. After 24 h incubation at 37 °C under agitation, yeast growth was assessed by optical density (OD600nm) using a microplate spectrophotometer (Multiscan EX, Thermo Fisher Scientific, Waltham, MA, USA). All tests were performed in triplicate. The MIC (minimal inhibitory concentration), defined as the lowest concentration of drug able to inhibit 100% of the growth of a pathogen, was determined for the different peptides against all previously described Candida strains, using a modified Gompertz model.

Candida albicans “R” = format: cell-based; conditions: 24 h, pH 5.6
Experimental: as §1, §2, §3

Compound	MIC C. albicans “S” [1]	MIC C. albicans “R” (Candida albicans “R”)
CC(C)C[C@@H](N)C(=O)N[C@H](CO)C(=O)N[C@H](Cc1ccccc1)C(=O)N[C@H](CCCNC(=N)N)C(=O)O [Peptide P9] (H-[dL][dS][dF][dR]-OH; N-terminus and C-terminus assumed)	>100 µg/mL	>100 µg/mL
CCCCCCCCCCCCCCCC(=O)N[C@@H](CO)C(=O)N[C@@H](CO)C(=O)N[C@@H](CCSC)C(=O)N[C@@H](CCCCN)C(=O)N[C@@H](CC(C)C)C(=O)N[C@@H](CO)C(=O)N[C@@H](Cc1ccccc1)C(=O)N[C@@H](CCCNC(=N)N)C(=O)N[C@@H](C)C(=O)N[C@@H](CCCNC(=N)N)C(=O)NCC(=O)N[C@@H](Cc1ccc(O)cc1)C(=O)NCC(=O)N[C@@H](Cc1ccccc1)C(=O)N[C@@H](CCCNC(=N)N)C(=O)O [Peptide P13] (Palmitoyl-SSMKLSFRARGYGFR-OH; C-terminus assumed)	>100 µg/mL	>100 µg/mL
CSCC[C@H](NC(=O)[C@H](CO)NC(=O)[C@H](CCCNC(=N)N)NC(C)=O)C(=O)N[C@@H](CCCNC(=N)N)C(=O)N[C@@H](CC(C)C)C(=O)N[C@@H](CO)C(=O)N[C@@H](Cc1ccccc1)C(=O)N[C@@H](CCCNC(=N)N)C(=O)O [Peptide P3] (Ac-RSMRLSFR-OH)	>100 µg/mL	>100 µg/mL
CSCC[C@H](NC(=O)[C@H](CO)NC(=O)[C@@H](N)CO)C(=O)N[C@@H](CCCCN)C(=O)N[C@@H](CC(C)C)C(=O)N[C@@H](CO)C(=O)N[C@@H](Cc1ccccc1)C(=O)N[C@@H](CCCNC(=N)N)C(=O)O [Peptide P14] (H-SSMKLSFR-OH)	>100 µg/mL	>100 µg/mL
CSCC[C@H](NC(=O)[C@H](CO)NC(=O)[C@@H](N)CO)C(=O)N[C@@H](CCCCN)C(=O)N[C@@H](CC(C)C)C(=O)N[C@@H](CO)C(=O)N[C@@H](Cc1ccccc1)C(=O)N[C@@H](CCCNC(=N)N)C(=O)N[C@@H](C)C(=O)N[C@@H](CCCNC(=N)N)C(=O)N[C@@H](C)C(=O)N[C@@H](Cc1ccc(O)cc1)C(=O)NCC(=O)N[C@@H](Cc1ccccc1)C(=O)N[C@@H](CCCNC(=N)N)C(=O)O [hCtl] (H-SSMKLSFRARAYGFR-OH)	50 µg/mL (≈ 28.1 µM)	50 µg/mL (≈ 28.1 µM)
CC(=O)N[C@@H](CC(C)C)C(=O)N[C@@H](CO)C(=O)N[C@@H](Cc1ccccc1)C(=O)N[C@@H](CCCNC(=N)N)C(=O)O [Peptide P10] (Ac-LSFR-OH)	>100 µg/mL	>100 µg/mL
CSCC[C@H](NC(=O)[C@H](CO)NC(=O)[C@@H](N)CCCNC(=N)N)C(=O)N[C@@H](CCCNC(=N)N)C(=O)N[C@@H](CC(C)C)C(=O)N[C@@H](CO)C(=O)N[C@@H](Cc1ccccc1)C(=O)N[C@@H](CCCNC(=N)N)C(=O)O [Peptide P2] (H-RSMRLSFR-OH)	50 µg/mL (≈ 47.5 µM)	100 µg/mL (≈ 95 µM)
CSCC[C@H](NC(=O)[C@H](CO)NC(=O)[C@H](CO)NC(C)=O)C(=O)N[C@@H](CCCCN)C(=O)N[C@@H](CC(C)C)C(=O)N[C@@H](CO)C(=O)N[C@@H](Cc1ccccc1)C(=O)N[C@@H](CCCNC(=N)N)C(=O)N[C@@H](C)C(=O)N[C@@H](CCCNC(=N)N)C(=O)NCC(=O)N[C@@H](Cc1ccc(O)cc1)C(=O)NCC(=O)N[C@@H](Cc1ccccc1)C(=O)N[C@@H](CCCNC(=N)N)C(=O)O [Peptide P12] (Ac-SSMKLSFRARGYGFR-OH; C-terminus assumed)	>100 µg/mL	>100 µg/mL
CSCC[C@H](NC(=O)[C@H](CO)NC(=O)[C@H](CO)NC(C)=O)C(=O)N[C@@H](CCCCN)C(=O)N[C@@H](CC(C)C)C(=O)N[C@@H](CO)C(=O)N[C@@H](Cc1ccccc1)C(=O)N[C@@H](CCCNC(=N)N)C(=O)O [Peptide P15] (Ac-SSMKLSFR-OH)	>100 µg/mL	>100 µg/mL
CC(C)C[C@@H](NC(=O)[C@H](N)CCCNC(=N)N)C(=O)N[C@H](CO)C(=O)N[C@H](Cc1ccccc1)C(=O)N[C@H](CCCNC(=N)N)C(=O)N[C@H](C)C(=O)N[C@H](Cc1c[nH]c2ccccc12)C(=O)O [Peptide P6] (H-[dR][dL][dS][dF][dR][dA][dW]-OH; N-terminus and C-terminus assumed)	>100 µg/mL	>100 µg/mL
CC(C)C[C@H](NC(=O)[C@@H](N)CCCNC(=N)N)C(=O)N[C@@H](CO)C(=O)N[C@@H](Cc1ccccc1)C(=O)N[C@@H](CCCNC(=N)N)C(=O)N[C@@H](C)C(=O)N[C@@H](Cc1c[nH]c2ccccc12)C(=O)O [Peptide P5] (H-RLSFRAW-OH)	>100 µg/mL	>100 µg/mL
CCCCCCCCCCCCCCCC(=O)N[C@@H](CCCNC(=N)N)C(=O)N[C@@H](CO)C(=O)N[C@@H](CCSC)C(=O)N[C@@H](CCCNC(=N)N)C(=O)N[C@@H](CC(C)C)C(=O)N[C@@H](CO)C(=O)N[C@@H](Cc1ccccc1)C(=O)N[C@@H](CCCNC(=N)N)C(=O)O [Peptide P4] (Palmitoyl-RSMRLSFR-OH; C-terminus assumed)	>100 µg/mL	>100 µg/mL
CCCCCCCCCCCCCCCC(=O)N[C@@H](CCSC)C(=O)N[C@@H](CCCCN)C(=O)N[C@@H](CC(C)C)C(=O)N[C@@H](CO)C(=O)N[C@@H](Cc1ccccc1)C(=O)N[C@@H](CCCNC(=N)N)C(=O)O [Peptide P19] (Palmitoyl-MKLSFR-OH; C-terminus assumed)	>100 µg/mL	>100 µg/mL
CSCC[C@H](N)C(=O)N[C@@H](CCCCN)C(=O)N[C@@H](CC(C)C)C(=O)N[C@@H](CO)C(=O)N[C@@H](Cc1ccccc1)C(=O)N[C@@H](CCCNC(=N)N)C(=O)O [Peptide P18] (H-MKLSFR-OH)	>100 µg/mL	>100 µg/mL
CCCCCCCCCCCCCCCC(=O)N[C@@H](CO)C(=O)N[C@@H](CO)C(=O)N[C@@H](CCSC)C(=O)N[C@@H](CCCCN)C(=O)N[C@@H](CC(C)C)C(=O)N[C@@H](CO)C(=O)N[C@@H](Cc1ccccc1)C(=O)N[C@@H](CCCNC(=N)N)C(=O)O [Peptide P16] (Palmitoyl-SSMKLSFR-OH; C-terminus assumed)	>100 µg/mL	>100 µg/mL
CCCCCCCCCCCCCCCC(=O)N[C@@H](CC(C)C)C(=O)N[C@@H](CO)C(=O)N[C@@H](Cc1ccccc1)C(=O)N[C@@H](CCCNC(=N)N)C(=O)O [Peptide P11] (Palmitoyl-LSFR-OH; C-terminus assumed)	>100 µg/mL	>100 µg/mL
CC(=O)N[C@@H](CCCCN)C(=O)N[C@@H](CC(C)C)C(=O)N[C@@H](CO)C(=O)N[C@@H](Cc1ccccc1)C(=O)N[C@@H](CCCNC(=N)N)C(=O)N[C@@H](C)C(=O)O [Peptide P17] (Ac-KLSFRA-OH)	>100 µg/mL	>100 µg/mL
CC(C)C[C@H](N)C(=O)N[C@@H](CO)C(=O)N[C@@H](Cc1ccccc1)C(=O)N[C@@H](CCCNC(=N)N)C(=O)O [Peptide P8] (H-LSFR-OH)	>100 µg/mL	>100 µg/mL
CC(=O)N[C@@H](CC(C)C)C(=O)N[C@@H](CO)C(=O)N[C@@H](Cc1ccccc1)C(=O)N[C@@H](CCCNC(=N)N)C(=O)N[C@@H](C)C(=O)N[C@@H](CCCNC(=N)N)C(=O)O [Peptide P7] (Ac-LSFRAR-OH)	>100 µg/mL	>100 µg/mL
